Source: US20220016092A1, “METHODS FOR TREATING SYMPTOMS AND DISORDERS ASSOCIATED WITH LYSOSOMAL STORAGE DISEASES” (GENZYME CORPORATION, priority 2019, published 2022)
Several values for one entry are separate records, joined by “and”; a condition that tells them apart may be missing. Identical values can stand only once. Entries after “also recorded” stand apart in the source; their conditions may differ.

Experiments:
[1] = test system: GM3 expression in B16 mouse melanoma cells; test: GM3 fluorescent-linked immunosorbent assay (FLISA), B16 cells; assay type: cell-based; details: 48 hours
Excerpt: Inhibition of glucosylceramide synthase activity can be measured with one or more assays. A first assay is a microsomal assay that directly measures the conversion of ceramide to glucosylceramide by HPLC. Microsomes are a source of glucosylceramide synthase activity in the microsomal assay. A second assay is a cell based, phenotypic assay that monitors cell surface expression of the downstream lipid GM3 by antibody mediated immunofluorescence. Specific protocols are provided below.
This is a phenotypic assay that measures GM3 expression in B16 mouse melanoma or C32 human melanoma cells following treatment with test compounds. Cell surface GM3 expression is determined by antibody mediated fluorescence.
Compounds are diluted in media and plated in 384 well plates in DMSO. B16 and C32 cells are assayed at densities of 20,000 cells/ml and 62,500 cells/ml, respectively, per well. Each titration curve contains 10 points that are assayed in duplicate on each test run. The plates are incubated for 48 hours at 37° C., 5% CO2, and are then washed once with TBS. Anti-GM3 antibody is added to each well and the plates are then incubated for an additional one hour at room temperature. Plates are subsequently washed twice and incubated for an additional hour with the labeled secondary antibody. Following the final incubation, the plates are washed twice and the fluorescence at λex=D640/20 nm and λem=657 nm is detected on a fluorescent reader.
The results of the microsomal assays are expressed as “GCS IC50”, which represents the concentration of the compound causing 50% inhibition of glucosylceramide synthase activity. The results of the cell-based assays are expressed as “GM3 B16 IC50” or “GM3 C32 IC50” for the B16 assay and the C32 assay, respectively. These values represent the concentration of the compound causing 50% inhibition of GM3 expression on the cell surface.

[2] = test system: adult patients with Gaucher disease Type 3; test: Clinical study in GD-3 patients: interstitial lung disease by high-resolution CT; assay type: in vivo, human; details: 15 mg/day + imiglucerase
Experimental: (§1) During the study patients were evaluated for safety and tolerability, CSF and plasma biomarkers (glucosylceramide, GL-1; glucosylsphingosine, lyso-GL1), pharmacokinetics, markers for systemic disease (spleen and liver volume measured by magnetic resonance imaging (MRI), platelet count, hemoglobin levels), indicia of interstitial lung disease (high resolution pulmonary computed tomography (CT)), and horizontal saccadic eye movement.
Severity of interstitial lung disease was characterized by the percent of lung volume affect by ILD as measured by high-resolution CT in four lung regions (aortic arch, carina, lower zone L3, lower zone L4). Patients were rated as having severe ILD (51-100% of lung volume affected), moderate ILD (26-50% of lung volume affected), mild ILD (1-25% of lung volume affected) or normal (0% of lung volume showing ILD).

[3] = test system: adult patients with Gaucher disease Type 3; test: Clinical study in GD-3 patients: markers for systemic disease (platelets, spleen volume, hemoglobin); assay type: in vivo, human; details: 15 mg/day + imiglucerase
Experimental: as §1
Individual patient data for platelet counts are shown in the table below (shown as 10^9 platelets/L): […]

[4] = test system: adult patients with Gaucher disease Type 3; test: Clinical study in GD-3 patients: Scale for Assessment and Rating of Ataxia (SARA); assay type: in vivo, human; details: 15 mg/day + imiglucerase
Experimental: The degree of ataxia at baseline and throughout the study was evaluated by the Scale for Assessment and Rating of Ataxia (SARA; Schmitz-Hübsch et al. [2006]), which assesses eight distinct attributes of cerebellar ataxia on a scale of 0-40. The eight attributes are gait, stance, sitting, speech disturbance, finger chase, nose-finger test, fast alternate hand movement, and heel-shin slide. SARA ataxia scoring results for all six patients is presented in the chart below: […]

[5] = test system: adult patients with Gaucher disease Type 3; test: Clinical study in GD-3 patients: trail making test (TMT); assay type: in vivo, human; details: 15 mg/day + imiglucerase
Excerpt: The trail making test (TMT) was used to evaluate cognitive function in the patients. The TMT is one of the most widely used neuropsychological tests and is included in most test batteries. The TMT is a diagnostic tool to assess general intelligence and cognitive dysfunctions (Tombaugh et al. [2004]; Cavaco et al. [2013]). In part A of the TMT, subjects are asked to connect a cluster of numbers in ascending order. This task is a combination of visual search and general visual and motor processing speed. Part B presents a sequence which alternates between numbers and letters. Subjects must actively switch between both categories when connecting them in ascending, but alternating order.
TMT-A evaluates mainly perceptual and psychomotor speed. TMT-B assesses more specifically mental flexibility and shifting abilities. TMT B minus TMT A score is used to remove the variance attributable to the graphomotor and visual scanning components of TMT A. This derived score reflects the unique task requirements of TMT B.

[6] = test system: healthy, human volunteers; test: Phase 1 studies in healthy volunteers: safety; assay type: in vivo
Experimental: Compound 2 is also known as venglustat.
In all studies, safety profile was assessed by monitoring treatment-emergent adverse events (TEAEs) through 10 days after last dose of study medication, including serious adverse events [SAEs]), ECG monitoring, laboratory values, and physical examinations.

[7] = Week 26, individual Patients 1-5

CC(C)(NC(=O)O[C@@H]1CN2CCC1CC2)c1csc(-c2ccc(F)cc2)n1 [Compound 2, (S)-quinuclidin-3-yl 2-(2-(4-fluorophenyl)thiazol-4-yl)propan-2-ylcarbamate]
IC50 [1]: 107 nM | ILD severity, Aortic Arch Left [2, 7]: Norm (normal (0% of lung volume showing ILD)); also recorded: Mild (mild ILD (1-25% of lung volume affected)) | ILD severity, Aortic Arch Right [2, 7]: Norm (normal (0% of lung volume showing ILD)); also recorded: Mild (mild ILD (1-25% of lung volume affected)) | ILD severity, Carina Left [2, 7]: Norm (normal (0% of lung volume showing ILD)); also recorded: Mild (mild ILD (1-25% of lung volume affected)) | ILD severity, Carina Right [2, 7]: Norm (normal (0% of lung volume showing ILD)); also recorded: Mod (moderate ILD (26-50% of lung volume affected)); also recorded: Mild (mild ILD (1-25% of lung volume affected)) | ILD severity, Zone L3 Left [2, 7]: Norm (normal (0% of lung volume showing ILD)); also recorded: Mild (mild ILD (1-25% of lung volume affected)) | ILD severity, Zone L3 Right [2, 7]: Norm (normal (0% of lung volume showing ILD)); also recorded: Mild (mild ILD (1-25% of lung volume affected)) | ILD severity, Zone L4 Left [2, 7]: Norm (normal (0% of lung volume showing ILD)); also recorded: Mod (moderate ILD (26-50% of lung volume affected)) | ILD severity, Zone L4 Right [2, 7]: Norm (normal (0% of lung volume showing ILD)); also recorded: Mod (moderate ILD (26-50% of lung volume affected)) | Patients showing regression of ILD ([2]; after 26 weeks): 4 out of 5 | Hemoglobin levels ([3]; 26 weeks): no clinically meaningful changes in hemoglobin levels | Platelet count increase in the three patients with lowest baseline platelet counts ([3]; 26 weeks): 23-42% | Patients with reductions in splenic volume of 10% or more ([3]; 26 weeks (5 patients)): Two | Systemic deterioration ([3]; 26 weeks, all patients): absence of systemic deterioration | Platelet count ([3]; Week 4, individual Patients 1-5): 203 10^9 platelets/L and 243 10^9 platelets/L and 247 10^9 platelets/L and 239 10^9 platelets/L and 154 10^9 platelets/L | Platelet count ([3]; Week 12, individual Patients 1-5): 214 10^9 platelets/L and 294 10^9 platelets/L and 264 10^9 platelets/L and 314 10^9 platelets/L and 180 10^9 platelets/L | Platelet count [3, 7]: 264 10^9 platelets/L and 236 10^9 platelets/L and 248 10^9 platelets/L and 267 10^9 platelets/L and 173 10^9 platelets/L | Hemoglobin levels ([3]; Week 52): no clinically meaningful changes in hemoglobin levels | Platelet count maintained by all patients ([3]; Week 52): greater than 120 ×10^9/L | Patients with spleen volume reductions ([3]; Week 52 (six patients)): two | Mean platelet concentration increase ([3]; Week 52, range −8.2% to +45.3%): 9.3% | Platelet count, % Change from baseline to 26 weeks ([3]; individual Patients 1-5): +42% and +23% and −4.3% and −13% and +36% | Platelet counts, average rise from baseline ([3]; week 26): 17% | Patients showing improvements in ataxia ([4]; 52 weeks): 5 of 6 | Patients exhibiting an improvement in ataxia, excluding Patient 5 ([4]; Week 52): 4 out of 5 | Mean improvement in SARA score, excluding Patient 5 ([4]; Week 52, SD=3.2): −0.9 | Mean difference in time taken to complete Trail B minus Trail A ([5]; 52 weeks, SD=54.3): 66.2 s | Patients with a TMT-A reduction, excluding Patient 5 ([5]; Week 52): four of five | Patients with a TMT-B reduction, excluding Patient 5 ([5]; Week 52): five of five | Patients with a reduction in the (TMT B−TMT A) time ([5]; Week 52): 5 of 6 | Patients with an improvement in Trail B minus Trial A, excluding Patient 5 ([5]; Week 52): four of five | Patients with reduction in time taken to complete Trail A ([5]; Week 52): Four of six | Patients with reduction in time taken to complete Trail B ([5]; Week 52): six of six | Hematologic or biochemical abnormalities ([6]; all Phase 1 studies): No clinically relevant hematologic or biochemical abnormalities | Vital signs ([6]; all Phase 1 studies): no relevant changes from baseline | Deaths, SAEs, severe TEAEs, discontinuations ([6]; all Phase 1 studies (single 2-150 mg; 5-20 mg daily for 14 days)): no deaths, SAEs, severe TEAEs, or TEAEs leading to study discontinuation | ECG parameters ([6]; single ascending dose and food effect studies): no relevant changes
